Data on 1 molecule can be found in US9790211B2, “5-amino-quinoline-8-carboxamide derivatives as 5-HT4 receptor agonists” (SUVEN LIFE SCIENCES LIMITED, priority 2013, dated 2017).

Assay [1] relates to Scopolamine Induced amnesia. The experiment in a line: Radial arm maze. The conditions noted are these: p.o., rats. It counts as in vivo. The text has this: The cognition enhancing properties of compounds of formula (I) of this invention were estimated by using this model.
Radial arm maze consists of a central hub of 45 cm diameter. Each arm was of dimension 42.5×15×24 cm. The maze was elevated to a height of 1 m above the ground. The animals were placed on a restricted diet until they reached approximately 85% of their free feeding weight. During this diet restriction period animals were habituated to the novel feed (pellets). Once the rats reached approximately 85% of their free feeding weight rats were habituated to the maze on the 1st and 2nd day. […] Animals were randomized on day 2. On the subsequent days the treatment was given as per the allotment: Each animal was introduced into the maze individually for a period of 10 minutes. The arms were baited only once and the animal had to learn the rule that repeated arm entries would not be rewarded. The trial ended once the rat had visited 16 arms or 10 minutes were over or all the pellets were eaten. The arm entries were recorded using the software. Once the trial was over the rat was removed and the maze was cleaned using soap water.

Assay [2] concerns sAPPα. The experiment in a line: Estimation of mice brain cortical sAPPα levels (ELISA). The assay is classed as in vivo. Particulars: s.c., 60 minutes post treatment. The protocol:
The control group of mice received sterile water for injection subcutaneously (s.c.). […] Mice were sacrificed 60 minutes after the drug injection by cervical dislocation, the brains were quickly isolated and the cortex was dissected at −20° C. The cortex was immediately kept on a dry ice and weighed before being stored at −80° C. until Enzyme-linked immunosorbent assay (ELISA) was performed. • 1. Brain tissues were thawed and Tris Buffer Saline containing protease inhibitors (TBS, 4 times by volume) added (0.8 mL/200 mg tissues). • 2. Brain tissue samples were homogenized using glass-Teflon homogenizer at 10 strokes. The resulting homogenates were centrifuged at 15,000 rpm at 4° C. for 60 minutes. • 3. The supernatant was discarded and to the precipitate, 4 times volume (0.8 mL/200 mg tissues) of TBS was added. Again homogenized followed by centrifugation at 15,000 rpm 4° C. for 30 minutes. • 4. From the above centrifuged mixture the supernatant was discarded and 10 times volume of 6M Guanidine-HCl in 50 mM Tris buffer pH: 7.6 (500 μL/50 mg tissues) was added. The resulting solution was sonicated for 5 seconds, 4 times. • 5. Resulting mixture was incubated at the RT for 30 minutes, followed by centrifugation at 15,000 rpm, 4° C. for 30 minutes. From this 5 μL of supernatant solution was taken and diluted with 155 μL of EIA buffer (dilution factor 32). Measurement of sAPPα by ELISA Kit: To investigate the role of an acute treatment of test compound on sAPPα levels, we measured the expression of this protein in homogenates from the cortex of treated and untreated mice by ELISA assay. The entire procedure was followed as described in the ELISA kit manual (Mouse/Rat sAPPα ELISA, Catalog Number: JP27415, […], Hamburg, Germany). Statistical analyses were performed using the Graph Pad Prism (Version 4). Data are Mean±SD of sAPPa levels expressed as percentage of control values (mice which received water for injection). Values were compared between the different groups by using unpaired t test. The significance level was set at *p<0.05; […]; ***<0.001.

Assay [3] concerns Male Wistar rats. The experiment in a line: Object recognition task model. It counts as in vivo. The conditions noted are these: dose mg/kg: Ex 1 0.1, Ex 2 0.03, Ex 4 0.03, Ex 13 1, Ex 23 0.01, Ex 37 10, Ex 43 0.3. The protocol:
The cognition enhancing properties of compounds of this invention were estimated by using this model.
Male Wistar rats (230-280 grams) were used as experimental animals. Four animals were housed in each cage. Animals were kept on 20% food deprivation before one day and given water ad libitum throughout the experiment and maintained on a 12 hours light/dark cycle. Also the rats were habituated to individual arenas for 1 hour in the absence of any objects.
One group of 12 rats received vehicle (1 mL/Kg) orally and another set of animals received compound of the formula (I) either orally or i.p., before one hour of the familiar (T1) and choice trial (T2).
The experiment was carried out in a 50×50×50 cm open field made up of acrylic. In the familiarization phase, (T1), the rats were placed individually in the open field for 3 minutes, in which two identical objects (plastic bottles, 12.5 cm height×5.5 cm diameter) covered in yellow masking tape alone (a1 and a2) were positioned in two adjacent corners, 10 cms from the walls. After 24 hours of the (T1) trial for long-term memory test, the same rats were placed in the same arena as they were placed in T1 trial. Choice phase (T2) rats were allowed to explore the open field for 3 minutes in presence of one familiar object (a3) and one novel object (b) (Amber color glass bottle, 12 cm high and 5 cm in diameter). Familiar objects presented similar textures, colors and sizes. During the T1 and T2 trial, explorations of each object (defined as sniffing, licking, chewing or having moving vibrissae whilst directing the nose towards the object at a distance of less than 1 cm) were recorded separately by stopwatch. Sitting on an object was not regarded as exploratory activity, however, it was rarely observed.
T1 is the total time spent exploring the familiar objects (a1+a2).
T2 is the total time spent exploring the familiar object and novel object (a3+b).
The object recognition test was performed as described by Behaviour Brain Research, (1988), 31, 47-59.

For assay [4], the target named is T1, recombinant human 5-HT4 receptor (Homo sapiens, UniProt Q13639).
T1 construct: expressed in transfected cells
The experiment in a line: Determination of EC50 values for 5-HT4 receptor (CHO cells, pCRE-Luc reporter). It counts as cell-based. The conditions noted are these: CHO. The gist of the method: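 CHO cells stably expressing human 5-HT4 receptor with a CRE-luciferase reporter, serum-starved overnight, then exposed to increasing compound concentrations in OptiMEM for 4 h at 37 °C. Cells lysed and luciferase luminescence plotted against concentration.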

Molecules are shown by their SMILES.

T1 sequence (Q13639 whole entry): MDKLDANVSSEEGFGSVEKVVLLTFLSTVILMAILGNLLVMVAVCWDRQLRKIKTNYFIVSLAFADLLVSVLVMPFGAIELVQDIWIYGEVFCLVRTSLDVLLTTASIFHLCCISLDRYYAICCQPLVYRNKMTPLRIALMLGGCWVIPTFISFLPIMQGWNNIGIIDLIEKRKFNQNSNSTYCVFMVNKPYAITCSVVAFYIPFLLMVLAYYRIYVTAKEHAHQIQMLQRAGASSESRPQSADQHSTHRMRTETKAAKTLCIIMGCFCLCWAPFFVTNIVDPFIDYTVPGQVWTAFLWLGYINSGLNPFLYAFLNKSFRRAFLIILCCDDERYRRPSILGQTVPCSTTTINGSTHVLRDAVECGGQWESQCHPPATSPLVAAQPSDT

As for `Nc1c(Cl)cc(C(=O)NCC2CCN(CC3(O)CCOCC3)CC2)c2ncccc12.O=C(O)C(O)C(O)C(=O)O` [Example 23, 5-Amino-6-chloro-N-{[1-(4-hydroxytetrahydro-2H-pyran-4-ylmethyl)-4-piperidinyl]methyl}quinoline-8-carboxamide L(+)-tartarate], the “Reversal of Scopolamine Induced amnesia - Effective dose range” value in assay [1] is 0.01-0.1 mg/kg, p.o. In addition, the “increase in the mice brain cortical sAPPα levels” value was 42% in assay [2] (0.3 mg/kg) and 33% in assay [2] (1.0 mg/kg). Moreover, in assay [3] (choice trial T2, p.o.), the “Exploration time mean ± S.E.M, Familiar object” value is 8.80 ± 1.46 s. The “Exploration time mean ± S.E.M, Novel object” value in assay [3] (choice trial T2, p.o.) was determined as 16.80 ± 2.45 s. In assay [3] (p.o.), the Inference entry is “Active”. For the same molecule, in assay [4], the Emax was 67%.

A word on the Emax: it is the greatest response seen or fitted, relative to the assay's reference.
